These results are taken from article PMC8091061, “Ceramide-1-phosphate transfer protein (CPTP) regulation by phosphoinositides” (The Journal of Biological Chemistry, 2021).

The target in one test is T1, human GLTP (Homo sapiens, UniProt Q9NZD2).
T1 sequence (Q9NZD2 1-209): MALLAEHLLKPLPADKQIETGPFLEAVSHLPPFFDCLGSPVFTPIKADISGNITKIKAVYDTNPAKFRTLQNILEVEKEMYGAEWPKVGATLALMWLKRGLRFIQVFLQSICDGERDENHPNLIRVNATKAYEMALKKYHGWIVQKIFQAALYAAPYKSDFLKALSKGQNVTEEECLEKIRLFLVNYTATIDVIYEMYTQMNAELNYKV
The test can be described thus: FRET intervesicular lipid transfer. Type of test: biochemical. As to conditions: labelled compound; POPC donor to POPC acceptor vesicles, pH 6.6, 150 mM NaCl, EDTA, 25 °C; transfer cargo, not chemically converted.

Another test addresses human CPTP (wtCPTP). The test can be described thus: FRET from CPTP Trp/Tyr to dansyl-PE in POPC vesicles. Type of test: binding. The following applies: pH 6.6, 150 mM NaCl, EDTA, 25 °C. An excerpt:
FRET from CPTP Trp/Tyr to dansyl-PE in POPC vesicles on human CPTP (wtCPTP)

The mark [1] stands for this setting: apparent Kd for POPC vesicles with 10 mol% lipid and 2 mol% dansyl-PE (vesicle PC concentration, not free lipid).

For `CCCCCCCCCCCCC/C=C/[C@@H](O)[C@H](CO[C@@H]1O[C@H](CO)[C@H](O)[C@H](O)[C@H]1O)NC(=O)CCCCCCCCC/C=C/c1c2ccccc2cc2ccccc12` [AV-GalCer], the “FRET intervesicular lipid transfer” value at human GLTP is “GalCer transfer rates by GLTP were unaffected by PI and PI-3P”.
With `CCCCCCCC/C=C\CCCCCCCC(=O)OC[C@H](COP(=O)(O)O[C@@H]1[C@H](O)[C@H](O)[C@@H](O)[C@H](O)[C@H]1O)OC(=O)CCCCCCC/C=C\CCCCCCCC` [PI, 1,2-dioleoyl-sn-glycero-3-phospho-(1'-myo-inositol)], the Kd on human CPTP (wtCPTP) (setting [1]) is 750 ± 90 nM.
Still for that read-out and setting: the figure for `CCCCCCCC/C=C\CCCCCCCC(=O)OC[C@H](COP(=O)(O)O[C@H]1[C@H](O)[C@@H](O)[C@H](OP(=O)(O)O)[C@@H](O)[C@H]1O)OC(=O)CCCCCCC/C=C\CCCCCCCC` [PI-4P, 1,2-dioleoyl-sn-glycero-3-phospho-(1'-myo-inositol-4'-phosphate)] is 260 ± 30 nM.
Consider `CCCCCCCC/C=C\CCCCCCCC(=O)OC[C@H](COP(=O)(O)O[C@@H]1[C@H](O)[C@H](O)[C@@H](OP(=O)(O)O)[C@H](OP(=O)(O)O)[C@H]1O)OC(=O)CCCCCCC/C=C\CCCCCCCC` [PI-(4,5)P2, 1,2-dioleoyl-sn-glycero-3-phospho-(1'-myo-inositol-4',5'-bisphosphate)], for which the Kd on human CPTP (wtCPTP) (setting [1]) turned out to be 260 ± 40 nM.
For the compound `CCCCCCCC/C=C\CCCCCCCC(=O)O[C@H](COC(=O)CCCCCCCCCCCCCCC)COP(=O)([O-])OCC[N+](C)(C)C` [POPC, 1-Palmitoyl-2-oleyl-sn-glycero-3-phosphocholine], at human CPTP (wtCPTP) (pure POPC vesicles with 2 mol% dansyl-PE (apparent, vesicle PC concentration)), the Kd was 1760 ± 200 nM.
PI-3P: the Kd at human CPTP (wtCPTP) (setting [1]) worked out at 290 ± 40 nM.
